How the values were obtained:
Assay in all cases: relative viability (nuclei count vs DMSO), 5 days (fraction); higher = more cells survive
[1] = compound: CCN1CCC(CC1)N2C=C(N=N2)CNC3=CC4=C(C(=CN=C4C(=C3)Cl)C#N)NC5=CC(=C(C=C5)F)Cl [KIN001-266] + COc1cccc2cc(-c3nc([C@H]4CC[C@H](C(=O)O)CC4)n4ncnc(N)c34)[nH]c12 [OSI-027] (partner 0.5 µM)
Procedure, shortened: (§1)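 Lung cancer cell lines, seeded in 1536-well plates, were treated the following day by pin tool with a single drug or with five library-drug doses (not always all listed) in √10 steps on top of a fixed anchor-drug dose. Cells were fixed and nuclei stained in one step after 5 days, and nuclei were counted. Relative viability is the nuclei count for treated wells divided by that for vehicle wells, reported as medians of duplicate plates.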

[2] = compound: CCN1CCC(CC1)N2C=C(N=N2)CNC3=CC4=C(C(=CN=C4C(=C3)Cl)C#N)NC5=CC(=C(C=C5)F)Cl [KIN001-266] + C[C@@H](Oc1cc(-c2cnn(C3CCNCC3)c2)cnc1N)c1c(Cl)ccc(F)c1Cl [Crizotinib] (partner 1 µM)
Procedure, shortened: as §1

[3] = compound: CCN1CCC(CC1)N2C=C(N=N2)CNC3=CC4=C(C(=CN=C4C(=C3)Cl)C#N)NC5=CC(=C(C=C5)F)Cl [KIN001-266] + C[C@]1(O)C[C@@H](c2nc(-c3ccc4ccc(-c5ccccc5)nc4c3)c3c(N)nccn32)C1 [Linsitinib] (partner 1 µM)
Procedure, shortened: as §1

[4] = compound: CCN1CCC(CC1)N2C=C(N=N2)CNC3=CC4=C(C(=CN=C4C(=C3)Cl)C#N)NC5=CC(=C(C=C5)F)Cl [KIN001-266] + Cc1cc(Nc2cc(N3CCN(C)CC3)nc(Sc3ccc(NC(=O)C4CC4)cc3)n2)n[nH]1 [Tozasertib] (partner 0.1 µM)
Procedure, shortened: as §1

Row | Cell Line | relative viability ([1]; first compound 0.08 µM) | relative viability ([1]; first compound 0.253 µM) | relative viability ([1]; first compound 0.8 µM) | relative viability ([1]; first compound 2.53 µM) | relative viability ([1]; first compound 8 µM) | relative viability ([2]; first compound 0.08 µM) | relative viability ([2]; first compound 0.253 µM) | relative viability ([2]; first compound 0.8 µM) | relative viability ([2]; first compound 2.53 µM) | relative viability ([2]; first compound 8 µM) | relative viability ([3]; first compound 0.08 µM) | relative viability ([3]; first compound 0.253 µM) | relative viability ([3]; first compound 0.8 µM) | relative viability ([3]; first compound 2.53 µM) | relative viability ([3]; first compound 8 µM) | relative viability ([4]; first compound 0.08 µM) | relative viability ([4]; first compound 0.253 µM) | relative viability ([4]; first compound 0.8 µM) | relative viability ([4]; first compound 2.53 µM) | relative viability ([4]; first compound 8 µM)
1 | NCI-H2228 | 0.623 | 0.428 | 0.606 | 0.462 | 0.34 | 0.583 | 0.435 | 0.565 | 0.493 | 0.471 | 0.94 | 0.813 | 0.483 | 0.518 | 0.454 | 0.312 | 0.255 | 0.266 | 0.192 | 0.264
2 | NCI-H2087 | 0.823 | 0.65 | 0.599 | 0.458 | 0.486 | 0.699 | 0.81 | 0.604 | 0.786 | 0.532 | 0.924 | 0.95 | 0.963 | 0.791 | 0.599 | 0.206 | 0.246 | 0.23 | 0.175 | 0.155
3 | LU99A | 0.285 | 0.303 | 0.301 | 0.269 | 0.29 | 0.662 | 0.519 | 0.515 | 0.55 | 0.522 | 0.635 | 0.564 | 0.496 | 0.401 | 0.467 | 0.282 | 0.29 | 0.259 | 0.21 | 0.191
4 | NCI-H1355 | 0.476 | 0.426 | 0.4 | 0.373 | 0.397 | 1.12 | 1.04 | 1.09 | 0.966 | 0.939 | 0.814 | 0.803 | 0.905 | 0.779 | 0.742 | 0.62 | 0.593 | 0.515 | 0.513 | 0.506
5 | NCI-H520 | 0.232 | 0.351 | 0.278 | 0.235 | 0.297 | 0.719 | 0.675 | 0.809 | 0.742 | 0.747 | 1.01 | 0.969 | 1.06 | 0.769 | 0.894 | 0.426 | 0.441 | 0.434 | 0.466 | 0.413
6 | NCI-H661 | 0.693 | 0.745 | 0.723 | 0.627 | 0.514 | 1.1 | 0.959 | – | – | 0.887 | 0.551 | 0.514 | 0.537 | 0.515 | 0.425 | 0.364 | 0.377 | 0.373 | 0.353 | 0.353
7 | NCI-H650 | 0.62 | 0.591 | 0.563 | 0.493 | 0.55 | 0.703 | 0.752 | 0.741 | 0.797 | 0.71 | 0.914 | 1.05 | 0.976 | 0.979 | 1.03 | 0.791 | 0.713 | 0.74 | 0.732 | 0.672
8 | NCI-H647 | 0.669 | 0.691 | 0.577 | 0.857 | 0.544 | 1.1 | 1.1 | 1.05 | 1.15 | 0.825 | 1.31 | 1.03 | 1.26 | 1.13 | 1.03 | 0.277 | 0.213 | 0.265 | 0.352 | 0.156
9 | 201T | 0.786 | 0.53 | 0.8 | 0.776 | 0.735 | 1.05 | 0.997 | 1.02 | 1.03 | 1.03 | 1.08 | 1.04 | 0.984 | 1.01 | 1.15 | 0.915 | 0.915 | 0.915 | 0.919 | 0.856
10 | NCI-H838 | 0.36 | 0.435 | 0.423 | 0.361 | 0.343 | 0.873 | 0.849 | 0.965 | 0.844 | 0.689 | 0.979 | 1.04 | 1.01 | 0.936 | 0.59 | 0.266 | 0.299 | 0.257 | 0.254 | 0.22
11 | SW 1573 | 0.778 | 0.627 | 0.616 | 0.515 | 0.513 | 0.695 | 0.846 | 0.81 | 0.663 | 0.68 | 0.844 | 0.8 | 0.72 | 0.732 | 0.619 | 0.219 | 0.186 | 0.162 | 0.184 | 0.224
12 | PC-14 | 0.836 | 0.981 | – | 0.67 | 0.152 | 0.92 | 0.972 | 0.817 | 0.852 | 0.571 | 0.953 | 1.06 | 1.01 | 0.97 | 0.442 | 0.577 | 0.655 | – | 0.589 | 0.432
13 | LK-2 | 0.215 | 0.187 | 0.199 | 0.168 | 0.222 | 0.229 | – | 0.219 | – | 0.239 | 0.583 | 0.603 | 0.64 | 0.516 | 0.655 | 0.182 | 0.18 | 0.174 | 0.185 | 0.154
14 | NCI-H1650 | 0.872 | 0.786 | 0.507 | 0.397 | 0.337 | 1.14 | 0.911 | 1.11 | 0.817 | 0.61 | – | – | – | – | – | 0.564 | 0.406 | 0.372 | 0.263 | 0.162
15 | NCI-H2170 | 0.734 | 0.769 | 0.708 | 0.639 | 0.719 | 1.17 | 1.19 | 1.22 | 1.11 | 1.18 | – | – | – | – | – | 0.802 | 0.715 | 0.623 | 0.785 | 0.709
16 | NCI-H1563 | 0.794 | 0.745 | 0.875 | 0.758 | 0.756 | 0.877 | 0.799 | 0.95 | 0.852 | 0.879 | 1.16 | 1.22 | 1.25 | 1.16 | 1.1 | – | – | – | – | –
17 | EBC-1 | – | – | – | – | – | 0.183 | 0.205 | 0.205 | 0.203 | 0.185 | 1.04 | 0.896 | 0.839 | 1.01 | 0.726 | – | – | – | – | –
18 | Calu-6 | – | – | – | – | – | 0.768 | 0.763 | 0.825 | 0.81 | 0.595 | 1.03 | 0.978 | 0.955 | 0.943 | 0.836 | – | – | – | – | –

Source: the supplement of paper PMC10307832
